Data reported in the supplement of paper PMC11061612.

Key:
[1] = compound: CCc1c2c(nc3ccc(O)cc13)-c1cc3c(c(=O)n1C2)COC(=O)[C@]3(O)CC [SN-38]; settings: max 0.3 µM
How it was run: (§1)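 After 24 hours at 37°C and 5% CO2 in 1536-well plates holding 7.5 μl of DMEM/F12 or RPMI with 10% FBS, cancer cell lines were dosed for 72 hours, with final DMSO typically 0.2%. Viability came from CellTiter-Glo 2.0 luminescence, scaled between the means of blank wells and DMSO wells. A non-linear mixed effects model fitted a two-parameter logistic curve to each dose response to give the single-agent IC50.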

[2] = compound: Cc1nc(-c2cn3c(n2)-c2ccc(-c4cnn(C(C)(C)C(N)=O)c4)cc2OCC3)n(C(C)C)n1 [Taselisib]; settings: max 10 µM
How it was run: as §1

[3] = compound: C1CN(CCC1(C(=O)N[C@@H](CCO)C2=CC=C(C=C2)Cl)N)C3=NC=NC4=C3C=CN4 [AZD5363]; settings: max 10 µM
How it was run: as §1

[4] = compound: COc1cc(Nc2ncc3c(n2)-c2ccc(Cl)cc2C(c2c(F)cccc2OC)=NC3)ccc1C(=O)O [Alisertib]; settings: max 10 µM
How it was run: as §1

[5] = compound: CN(CC[C@H](CSC1=CC=CC=C1)NC2=C(C=C(C=C2)S(=O)(=O)NC(=O)C3=CC=C(C=C3)N4CCC(CC4)[C@H](C5=CC=CC=C5C6=CC=C(C=C6)Cl)O)S(=O)(=O)C(F)(F)F)CCO [AZD4320]; settings: max 1 µM
How it was run: as §1

[6] = compound: CN(C)CCCOc1ccc(-c2ccc3ncc4c(c3c2)n(C2CCOCC2)c(=O)n4C)cn1 [AZD0156]; settings: max 3 µM
How it was run: as §1

[7] = compound: CC1=CN2[C@@H](C1)C=NC3=CC(=C(C=C3C2=O)OC)OCCCCCOC4=C(C=C5C(=C4)N=C[C@@H]6CC(=CN6C5=O)C)OC [SG3199]; settings: max 0.001 µM
How it was run: as §1

[8] = compound: N#Cc1cnc(Nc2cc(NC[C@H]3CNCCO3)c(C(F)(F)F)cn2)cn1 [SRA737]; settings: max 10 µM
How it was run: as §1

[9] = compound: O=C(c1cc(Cc2n[nH]c(=O)c3ccccc23)ccc1F)N1CCN(C(=O)C2CC2)CC1 [Olaparib]; settings: max 10 µM
How it was run: as §1

[10] = compound: C[C@@H](Nc1cc(F)cc(F)c1)c1cc(C(=O)N(C)C)cc2c(=O)cc(N3CCOCC3)oc12 [AZD8186]; settings: max 10 µM
How it was run: as §1

[11] = compound: C=CCn1c(=O)c2cnc(Nc3ccc(N4CCN(C)CC4)cc3)nc2n1-c1cccc(C(C)(C)O)n1 [AZD1775]; settings: max 3 µM
How it was run: as §1

[12] = compound: CC1(C)CCC(CN2CCN(c3ccc(C(=O)NS(=O)(=O)c4ccc(NCC5CCOCC5)c([N+](=O)[O-])c4)c(Oc4cnc5[nH]ccc5c4)c3)CC2)=C(c2ccc(Cl)cc2)C1 [Venetoclax]; settings: max 1 µM
How it was run: as §1

[13] = compound: CCN(CCO)CCCOc1ccc2c(Nc3cc(CC(=O)Nc4cccc(F)c4)[nH]n3)ncnc2c1 [AZD2811]; settings: max 1 µM
How it was run: as §1

[14] = compound: Nc1ccn([C@@H]2O[C@H](CO)[C@@H](O)C2(F)F)c(=O)n1 [Gemcitabine]; settings: max 0.3 µM
How it was run: as §1

[15] = compound: NC1(c2ccc(-c3nc4ccn5c(=O)[nH]nc5c4cc3-c3ccccc3)cc2)CCC1 [MK-2206]; settings: max 10 µM
How it was run: as §1

[16] = compound: C[C@@H](c1ccc2nccn2c1)n1nnc2ncc(-c3cnn(C)c3)nc21 [Savolitinib]; settings: max 1 µM
How it was run: as §1

[17] = compound: Cc1c2c(nn1C)CSCc1cc(n(C)n1)CSc1cc(c3ccccc3c1)OCCCc1c(C(=O)O)n(C)c3c-2c(Cl)ccc13 [AZD5991]; settings: max 1 µM
How it was run: as §1

[18] = compound: O=c1[nH]cc(F)c(=O)[nH]1 [5-Fluorouracil]; settings: max 20 µM
How it was run: as §1

[19] = compound: COc1cc([C@@H]2c3cc4c(cc3[C@@H](O[C@@H]3O[C@@H]5CO[C@@H](C)O[C@H]5[C@H](O)[C@H]3O)[C@H]3COC(=O)[C@H]23)OCO4)cc(OC)c1O [Etoposide]; settings: max 10 µM
How it was run: as §1

[20] = compound: CS(=O)(=O)CCNCc1ccc(-c2ccc3ncnc(Nc4ccc(OCc5cccc(F)c5)c(Cl)c4)c3c2)o1 [Lapatinib]; settings: max 10 µM
How it was run: as §1

[21] = compound: C1CC(C1)(C(=O)[O-])C(=O)[O-].N.N.[Pt+2] [Carboplatin]; settings: max 10 µM
How it was run: as §1

[22] = compound: COc1cc2ncnc(Nc3ccc(F)c(Cl)c3)c2cc1OCCCN1CCOCC1 [Gefitinib]; settings: max 10 µM
How it was run: as §1

[23] = compound: COc1nnc2ccc(N3CCC(c4ccc(OCCN5CCN(C)C(=O)[C@H]5C)cc4)CC3)nn12 [AZD5153]; settings: max 1 µM
How it was run: as §1

[24] = compound: CC(=O)c1c(C)c2cnc(Nc3ccc(N4CCNCC4)cn3)nc2n(C2CCCC2)c1=O [Palbociclib]; settings: max 10 µM
How it was run: as §1

[25] = compound: Cc1cc2ncnn2cc1Nc1ncc2c(n1)n(C1CCOCC1)c(=O)n2C [AZD7648]; settings: max 10 µM
How it was run: as §1

[26] = compound: O=C(Nc1ccc2[nH]nc(-c3ccncc3)c2c1)[C@@H]1CCN(CC(=O)N2CCN(c3ccc(-c4ncccn4)cc3)CC2)C1; settings: max 5 µM
How it was run: as §1

[27] = compound: COc1cccc2c1C(=O)c1c(O)c3c(c(O)c1C2=O)C[C@@](O)(C(=O)CO)C[C@@H]3O[C@H]1C[C@H](N)[C@H](O)[C@H](C)O1 [Doxorubicin]; settings: max 1 µM
How it was run: as §1

[28] = compound: CC1=C(C(=CC=C1)Cl)NC(=O)C2=CN=C(S2)NC3=CC(=NC(=N3)C)N4CCN(CC4)CCO [Dasatinib]; settings: max 2 µM
How it was run: as §1

[29] = compound: C[C@@H]1COCCN1C2=NC(=NC(=C2)C3(CC3)[S@](=N)(=O)C)C4=C5C=CNC5=NC=C4 [AZD6738]; settings: max 10 µM
How it was run: as §1

[30] = compound: C[C@@H](Oc1cc(-c2cnn(C3CCNCC3)c2)cnc1N)c1c(Cl)ccc(F)c1Cl [Crizotinib]; settings: max 10 µM
How it was run: as §1

[31] = compound: COc1cccc(OCCCN)c1-c1cc(Nc2cnc(C#N)cn2)n[nH]1 [Prexasertib]; settings: max 1 µM
How it was run: as §1

[32] = compound: Cn1cnc2c(F)c(Nc3ccc(Br)cc3Cl)c(C(=O)NOCCO)cc21 [Selumetinib]; settings: max 10 µM
How it was run: as §1

[33] = compound: CC(=O)Nc1cccc(-n2c(=O)n(C3CC3)c(=O)c3c(Nc4ccc(I)cc4F)n(C)c(=O)c(C)c32)c1 [Trametinib]; settings: max 1 µM
How it was run: as §1

[34] = compound: CC(=O)O[C@H]1C(=O)[C@@]2(C)[C@H]([C@H](OC(=O)c3ccccc3)[C@]3(O)C[C@H](OC(=O)[C@H](O)[C@@H](NC(=O)c4ccccc4)c4ccccc4)C(C)=C1C3(C)C)[C@]1(OC(C)=O)CO[C@@H]1C[C@@H]2O [Paclitaxel]; settings: max 3 µM
How it was run: as §1

[35] = compound: CC(C)n1c(=O)n(C)c2cnc3cc(F)c(-c4ccc(OCCCN5CCCCC5)nc4)cc3c21 [AZD1390]; settings: max 0.3 µM
How it was run: as §1

Cell Line	IC50, cell viability 72 h [1]	IC50, cell viability 72 h [2]	IC50, cell viability 72 h [3]	IC50, cell viability 72 h [4]	IC50, cell viability 72 h [5]	IC50, cell viability 72 h [6]	IC50, cell viability 72 h [7]	IC50, cell viability 72 h [8]	IC50, cell viability 72 h [9]	IC50, cell viability 72 h [10]	IC50, cell viability 72 h [11]	IC50, cell viability 72 h [12]	IC50, cell viability 72 h [13]	IC50, cell viability 72 h [14]	IC50, cell viability 72 h [15]	IC50, cell viability 72 h [16]	IC50, cell viability 72 h [17]	IC50, cell viability 72 h [18]	IC50, cell viability 72 h [19]	IC50, cell viability 72 h [20]	IC50, cell viability 72 h [21]	IC50, cell viability 72 h [22]	IC50, cell viability 72 h [23]	IC50, cell viability 72 h [24]	IC50, cell viability 72 h [25]	IC50, cell viability 72 h [26]	IC50, cell viability 72 h [27]	IC50, cell viability 72 h [28]	IC50, cell viability 72 h [29]	IC50, cell viability 72 h [30]	IC50, cell viability 72 h [31]	IC50, cell viability 72 h [32]	IC50, cell viability 72 h [33]	IC50, cell viability 72 h [34]	IC50, cell viability 72 h [35]
NCCIT (Other Solid Carcinomas)	> 300 nM	1620 nM	8120 nM	> 10000 nM	> 1000 nM	> 3000 nM	> 1 nM	> 10000 nM	> 10000 nM	> 10000 nM	561 nM	> 1000 nM	> 1000 nM	> 300 nM	6670 nM	> 1000 nM	891 nM	> 20000 nM	> 10000 nM	> 10000 nM	> 10000 nM	> 10000 nM	33.6 nM	> 10000 nM	> 10000 nM	> 5000 nM	> 1000 nM	> 2000 nM	8410 nM	> 10000 nM	70.3 nM	> 10000 nM	> 1000 nM	11.8 nM	> 300 nM
NCI-H520 (Squamous Cell Lung Carcinoma)	46 nM	2340 nM	4010 nM	8620 nM	> 1000 nM	> 3000 nM	> 1 nM	> 10000 nM	> 10000 nM	4990 nM	1030 nM	> 1000 nM	> 1000 nM	93.6 nM	1870 nM	> 1000 nM	> 1000 nM	> 20000 nM	> 10000 nM	> 10000 nM	> 10000 nM	> 10000 nM	923 nM	4770 nM	> 10000 nM	> 5000 nM	> 1000 nM	> 2000 nM	7340 nM	> 10000 nM	44.3 nM	> 10000 nM	> 1000 nM	43.1 nM	> 300 nM
NCI-H526 (Small Cell Lung Carcinoma)	2.57 nM	> 10000 nM	> 10000 nM	9420 nM	43.4 nM	> 3000 nM	> 1 nM	> 10000 nM	> 10000 nM	> 10000 nM	642 nM	246 nM	> 1000 nM	251 nM	> 10000 nM	> 1000 nM	> 1000 nM	12800 nM	713 nM	> 10000 nM	> 10000 nM	> 10000 nM	80.1 nM	> 10000 nM	> 10000 nM	> 5000 nM	107 nM	> 2000 nM	10000 nM	7940 nM	83.8 nM	> 10000 nM	> 1000 nM	9.08 nM	> 300 nM
NCI-H929 (Plasma Cell Myeloma)	13.1 nM	23.6 nM	106 nM	> 10000 nM	> 1000 nM	1150 nM	> 1 nM	> 10000 nM	> 10000 nM	728 nM	1060 nM	> 1000 nM	> 1000 nM	12.1 nM	69.9 nM	> 1000 nM	17.5 nM	7150 nM	1250 nM	> 10000 nM	> 10000 nM	> 10000 nM	13.4 nM	> 10000 nM	2270 nM	981 nM	548 nM	> 2000 nM	5410 nM	982 nM	179 nM	3130 nM	32.9 nM	4.54 nM	> 300 nM
